Values quoted from earlier work in US11504387B2, “Bioconversion of oleuropein” (SOCIETE DES PRODUITS NESTLE S.A., priority 2017, dated 2022).

Legend:
[1] = compared to caffeic acid, oleuropein and hydroxytyrosol
[2] = in vivo
[3] = upper gastrointestinal tract and small intestine
[4] = compared with hydroxytyrosol

## CC=C1C(O)OC=C(C(=O)OC)C1CC(=O)OCCc1ccc(O)c(O)c1 (stereo not shown) [oleuropein aglycone, 3,4-dihydroxyphenylethanol-elenolic acid]
[1]
  antioxidant activity: comparable to that of caffeic acid, oleuropein and hydroxytyrosol
[2]
  clearance from the plasma: slower clearance from the plasma compared with hydroxytyrosol and oleuropein

## C/C=C1/[C@H](O[C@@H]2O[C@H](CO)[C@@H](O)[C@H](O)[C@H]2O)OC=C(C(=O)OC)[C@H]1CC(=O)OCCc1ccc(O)c(O)c1 [oleuropein]
[3]
  resistance to degradation: resists degradation in the upper gastrointestinal tract and the small intestine

## hydroxytyrosol acetate
[4]
  solubility in the lipophilic phases: more soluble in the lipophilic phases than hydroxytyrosol
